Assays:
HTU-LOX (HTU-QV variant) = biological target: T1, HTU-LOX (HTU-QV variant) (Haloterrigena turkmenica, UniProt D2RU96); test: Amplex red / horseradish peroxidase fluorometric H2O2 release assay; format: biochemical; settings: inhibitor, bought as fumarate salt; 0.1 mM used as negative control; 0.1 M borate pH 8.3, 37 °C
T1 construct: gene Htur_0264; delta1-91, catalytic domain, N-terminus Gln92-Val; His-tag kept (pQE-30); full-length protein 308 residues, 33,829 Da

HTU-LOX (HTU-AA variant) = biological target: T2, HTU-LOX (HTU-AA variant) (Haloterrigena turkmenica, UniProt D2RU96); test: as above; format: biochemical; settings: 0.1 M borate pH 8.3, 37 °C; Cu2+-refolded enzyme
T2 construct: gene Htur_0264; delta1-34, signal peptide removed, N-terminus Ala35-Ala; His-tag kept (pQE-30); full-length protein 308 residues
T2 sequence (D2RU96 35-296): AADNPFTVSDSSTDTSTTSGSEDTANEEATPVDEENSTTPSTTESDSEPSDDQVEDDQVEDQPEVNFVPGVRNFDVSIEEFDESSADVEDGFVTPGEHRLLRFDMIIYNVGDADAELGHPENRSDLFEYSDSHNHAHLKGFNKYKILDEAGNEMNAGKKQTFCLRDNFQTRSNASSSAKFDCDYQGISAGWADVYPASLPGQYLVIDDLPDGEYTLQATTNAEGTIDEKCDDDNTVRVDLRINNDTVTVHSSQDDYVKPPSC

Compound	Amplex red / horseradish peroxidase fluorometric H2O2 release assay (HTU-LOX (HTU-QV variant))	Amplex red / horseradish peroxidase fluorometric H2O2 release assay (HTU-LOX (HTU-AA variant))
N#CCCN [3-aminopropionitrile]	HTU-LOX demonstrated good sensitivity to the classical inhibitor of all LOXes—3-aminopropionitrile (BAPN)	
NCCc1c[nH]cn1 [histamine]		Refolded proteins HTU-QV and HTU-AA exhibit activity against a wide variety of primary amines

From article PMC6452851, “Properties of a cryptic lysyl oxidase from haloarchaeon Haloterrigena turkmenica” (PeerJ, 2019)
